Experimental findings from patent publication US11154476B2, “Synergistic effects of alkanolamine alkylamides and other moisturizing agents” (Akzo Nobel Chemicals International, B.V., priority 2016, dated 2021) are described below.

Data set [1] is described as follows: Dynamic Vapor Sorption (DVS) analysis, equilibrium water absorption. It counts as physicochemical. The following applies: DVS at 50% humidity, 25° C., single moisturizing agents / Ex. 1 and 2 products. The procedure:
Dynamic Vapor Sorption (DVS) technique was used to measure the moisture intake of a specific compound at certain humidity level. DVS Intrinsic instrument manufactured by Surface Measurement Systems UK Ltd. (London, United Kingdom) was used to measure DVS. The following measurement procedure was used to determine the water vapor absorption of a specific composition.
A uniform aqueous solution of a target composition was made at 50% concentration. About 1.2 to 1.6 mg of the prepared aqueous solution was added to DVS instrument at zero tare balance. The temperature was then set at 25° C. A measurement was performed at 90% humidity to ensure that the sample absorbs the highest level of water in order to minimize the mass transfer barrier during the evaporation process. The dynamics of water absorption was determined by the weight change per minute; with water absorption equilibrium defined as the time at which the weight change per minute was less than 0.005% of the sample weight. The equilibrium weight at 0% humidity is the sample weight by itself. Thus, the percentage of equilibrium water absorption at various humidity levels was calculated.
Using the above procedure, DVS was used to evaluate water absorption for compositions comprising DGA Acetamide, other moisturizing agents, and combinations of DGA Acetamide and various additional moisturizing agents. First, DVS values were obtained at 50% humidity for the DGA acetamide products of Examples 1 and 2 above and other selected moisturizing agents.
Then, 1:1 mixtures based on weight were made of each of the DGA Acetamide products of Examples 1 and 2 above with each of the other four moisturizing agents, where the DGA acetamide product of Example 1 is DGA Acetamide:glycerol (83 wt %:17 wt %) and the DGA acetamide product of Example 2 is substantially 100% DGA acetamide. DVS measurements were taken at 50% humidity, using the same amount of total moisturizing agent. It was expected that the DVS values of the mixtures with the other four moisturizing agents would have been the average of the DVS values of each of the moisturizing agents individually, based on the weight percent of each in the mixture.

Data set [2] has as its system inner forearm of each panelist. Description: Corneometer analysis of test gel formulations, scaled moisturization performance (SMP). The data set is classed as in vivo. The following applies: average of 8 panelists, water = 0, glycerol = 1, 22° C., 50% RH; for Corneometer SMP results, 6 hours: 6 hours after single application of gel with 5 wt % active; for Corneometer SMP results, 30 hours: 30 hours after single application of gel with 5 wt % active. The procedure: To prepare a gel formulation, deionized water was added to a 4 oz. tall jar that was set up for mixing using an overhead mixer and a jiffy blade. The water was then mixed at a speed that created a good vortex that nearly reached the bottom of the jar (e.g., about 700 rpm). To this, Carbopol® 940 (cross-linked polyacrylate polymer available from Lubrizol, Wickliffe, Ohio) was slowly added and mixed for at least 15 minutes until homogeneous. Triethanolamine (TEA) was then added and the mixing speed was adjusted overhead to about 200 rpm and continued mixing for about 10 minutes (e.g., product viscosity increased). To this mixture was added 5 wt % of the moisturizing agent, as either a single agent or a combination of agents, followed by 0.5 wt % Glydant™ Plus™ (a preservative available from Lonza, Basel, Switzerland) and the remaining, balance water. Mixing was continued at 200 rpm for about 15-20 minutes. The mixture was then removed from the mixer and the final pH was measured. Prior to analysis, samples were centrifuged at 2000 rpm for 15 minutes to remove suspended air pockets from the gel formulation.
About 30 μl of each test gel formulation was applied once (e.g., in a single application with no additional re-applications) in a circle with diameter of about 3 cm on the inner forearm of each panelist. Moisture levels were measured using a Corneometer® CM 825 (available from CK Industries) prior to application of the test gel formulations, and at 6 hour and 30 hour intervals after application, at a temperature of 22° C. and relative humidity of 50%.
To facilitate more meaningful comparisons of the corneometer data for the different test formulations, the following adjustment were made to minimize the variations in the response of humectant treatment: the moisturization performance for glycerol was defined to be 1, and that for water to be zero, then the scaled moisturization performance (SMP) for a specific moisturizing active was defined as: […]
RActive, Rwater, and Rglycerol were the actual corneometer readings of the test gel formulations comprising the active moisturizing agent(s), water, and glycerol, respectively, for an individual panelist at a specific time after the initial treatment. The overall SMP of each tested activewas then the average of SMP over 8 panelists. […] The SMP values illustrated in FIG. 4 provide narrower standard deviations over 8 panelists when compared to actual corneometer readings in FIG. 3.
Using this procedure, corneometer measurements were taken at 6 hours and 30 hours for hydroxyethyl urea, glycerol, the DGA acetamide:glycerol (83:17 wt %) of Example 1, the DGA Acetamide of Example 2, a 1:1 mixture of the DGA Acetamide of Example 2 with hydroxyethyl urea, and a 1:1 mixture of the DGA Acetmaide of Example 2 with glycerol. Measurements were taken at six hours and 30 hours on eight subjects, and calculated as scaled moisturization performance values.

With `OCC(O)CO` [D, Glycerol], the “% water absorbed (based on weight of moisturizing agent)” value (shortened to “% water absorbed”) in data set [1] is 27.7%. In data set [2], the “Corneometer SMP results, 6 hours” value is on record as 1.0 and the “Corneometer SMP results, 30 hours” value is recorded as 1.0.
Consider `CC(O)C(=O)[O-].[Na+]` (centres unmarked) [F, Sodium lactate], for which the “% water absorbed” value in data set [1] came to 35.1%.
Regarding `CC(=O)NCCOCCO` [C, N-acetyl diglycolamine], the “% water absorbed” value in data set [1] came out at 26.9%. In data set [2], the “Corneometer SMP results, 6 hours” value turned out to be 0.80 and the “Corneometer SMP results, 30 hours” value worked out at 0.92.
As for `O=C1CCC(C(=O)[O-])N1.[Na+]` (centres unmarked) [E, sodium pyrrolidone carboxylate], the “% water absorbed” value in data set [1] is 28.7%.
With `NC(=O)NCCO` [A, Hydroxyethyl urea], in data set [1], the “% water absorbed” value worked out at 19.7%. Besides, in data set [2], the “Corneometer SMP results, 6 hours” value turned out to be 0.91 and the “Corneometer SMP results, 30 hours” value is recorded as 1.03.
